The results in this text go back to patent US7728146B2, “Enzyme inhibitors” (Probiodrug AG, priority 2006, dated 2010).

Data set [1] addresses dipeptidyl peptidase (DP IV) (UniProt P27487). Kind of data set: Determination of IC50 against DP IV (hydrolysis of Gly-Pro-pNA). Format: biochemical, porcine kidney or recombinant human. Conditions: compounds obtained by preparative synthesis. The procedure:
Determination of IC50 Against DP IV
Substances are screened for inhibition of dipeptidyl peptidase (DP IV) by their ability to inhibit the hydrolysis of the DP IV specific substrate Glycyl-Prolyl-4-Nitroanilide (Gly-Pro-pNA). All compounds are diluted in DMSO and IC50 will be determined with 11 serial dilutions (1:2) starting with an final concentration of 100 μM. The final DMSO concentration in the assay is 5% (v/v). The method was automated using a Tecan Genesis Freedom liquid handler and a Genius Pro (Tecan) microplate reader.
A stock solution of 0.102 M HEPES is prepared. Ionic strength (I=0.32) is adjusted by KCl and pH (pH 7.6) by KOH.
2.16 mM solution of Gly-Pro-pNA in deionized water is prepared.
All samples are dissolved in DMSO preparing a 10 mM stock solution.
DP IV from porcine kidney (pDP IV) or recombinant human DP IV (rhDP IV) is diluted in HEPES buffer to a final activity of approximately 40-50 μU*ml^−1. The DP IV is stored in a cooling rack (4° C.) on the liquid handler.
The assay may becarried out at room temperature using Freedom liquid handler connected with a Genios Pro microplate reader. Each sample is measured in duplicate. Each sample stock solution is prediluted with DMSO in a ratio of 1:5 in a polypropylen 96-well plate. From this predilution 10 serial (1:2) dilutions in DMSO are prepared. 13.5 μl of the 11 DMSO dilutions and DMSO alone are transferred to the measurement microplate (duplicates) and 86.5 μl water, 100 μl HEPES buffer and 50 μl substrate solution are added to each well. The enzymatic reaction is started by addition of 20 μl enzyme solution to each well, and then the microplate is immediately transferred to the microplate reader.
After short mixing (20 s) the release of 4-Nitroanilin (pNA) is monitored at 405 nm for 30 cycles (approx. 18 min).
Post assay calculations are done by the Magellan (Tecan) and Graphit Software. The linear slopes are calculated for each well and averaged for the duplicates. The residue activities are calculated in relation to a sample containing only solvent instead of inhibitor and expressed in %. Residue activities are plotted against the log of inhibitor concentrations and IC50 is calculated by an 4-parameter fitting ranging from 0 to 100%.

For data set [2], the target named is T1, DP IV (Homo sapiens, UniProt P27487). Put plainly: Ki and inhibition type, DP IV. Format: biochemical. The note with it: compounds obtained by preparative synthesis. The method, then: Measurement of DP IV activities for Ki determination is carried out as described for IC50. For Ki determination samples were analysed in triplicates. 7 serial dilutions of the inhibitor (range calculated from the IC50 determination) in water are analyzed with 4 serial dilutions of the substrate.
Data are analysed by non-linear regression to the inhibitor equations using Graphit software. Ki-value and inhibition type are determined using the inhibitor equation (competitive, partiell competitive, non-competitive) which gives the best fitting results. […]

In data set [3] the target is DPII (Homo sapiens, UniProt Q9UHL4). Kind of data set: DPII assay. Type of data set: biochemical. Conditions: for Selectivity DPII(IC50)/DPIV(Ki): ratio IC50 DPII / Ki DP IV; for IC50: sodium acetate buffer pH 5.5, Gly-Pro-AMC 1 mM. The method, then:
(§1) Determination of IC50 values for DPII and DP9 are done similarly as described for DP IV.
For DPII instead of the HEPES buffer a 0.2 M sodium acetate buffer pH 5.5 is used. As substrate Gly-Pro-AMC is used in a final concentration of 1 mM.

Data set [4] has as its target DP9 (Homo sapiens, UniProt Q86TI2). Kind of data set: DP9 assay. Type of data set: biochemical. The note with it: for IC50: Gly Pro-AMC 0.25 mM; for Selectivity DP9(IC50)/DPIV(Ki): ratio IC50 DP9 / Ki DP IV. The procedure:
as §1
For DP9 Gly Pro-AMC is used as substrate in a final concentration of 0.25 mM.

In data set [5] the test system is liver cell carcinoma cell line Hep-G2. Kind of data set: Cytotoxicity screening and LD50 determination on Hep-G2 (LDH, CytoTox-One). Format: cell-based. Conditions: for Cytotox 100 μM (%) HEPG2 / Viability 100 μM (%) HEP-G2: 24 h; for Cytotox 100 μM (%) HEPG2: LDH activity in cell culture media, lysed untreated cells = 100%; for Viability 100 μM (%) HEP-G2: LDH of lysed cells, untreated control = 100%; for Cytotox 100 μM (%) HEPG2 / Viability 100 μM (%) HEP-G2 / Observed cytotox: 100 μM; for Observed cytotox: Hep-G2, observation of the cells; for LD50 Viability HEP-G2 / LD50 cytotox HEP-G2: 8 serial dilutions, highest concentration 1 mM. The procedure, abridged:
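Hep-G2 cells (50 000/well) precultured 24 h, then compound in DMSO (final 1%) added for 24 h. Screen at 100 μM, 2 μM, 40 nM in triplicate. LDH in medium gave cytotoxicity (untreated 0%, lysed 100%); LDH of lysed cells gave viability. LD50 from 8 serial dilutions, top 1 mM.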

Data set [6] deals with neuroblastoma cell line SY5Y. Kind of data set: LD50 determination on SY5Y (LDH). Format: cell-based. Conditions: 8 serial dilutions, highest concentration 1 mM. The method, then:
After 24 h of cultivation in a 96 well plate (50 000 cells/well) compounds (dissolved in DMSO) are added and cytotoxicity and vitality of the cells are analysed after another 24 h of cultivation using the CytoTox-One Homogenoeous membrane toxicity assay (Promega).
For cytotoxicity the LDH activity in the cell culture media after 24 h of incubation are analysed. The untreated control is set to 0% cytotoxicity. For the 100% value LDH activity of lysed untreated cells are analysed.
For viability cell culture media are removed from the cells and all cells are lysed using the lysis buffer. LDH activity is determined and untreated control is set to 100% viability.
For determination of LD50 the liver carcinoma cell line HEP-G2 and the neuroblastoma cell line SY5Y may be used. The effect of 8 serial dilutions of the compounds (highest concentration 1 mM) is investigated as described above.

Data set [7] is described as follows: Caco-2 transport assay. The note with it: human, Caco-2, pH 7.5; for Papp A→B: apical to basal; for Papp B→A: basal to apical. Type of data set: in vitro ADME, human. The method, then: (§2) The concentration of compounds in the Caco experiments may be determined from their potency to inhibit recombinant human DP IV.
(§3) Reaction is started by addition of 20 μl rhDP IV and release of pNA was monitored at 405 nm. Samples are analyzed in several dilutions (undiluted, 1:10, 1:[…]). Dilutions are done in the Caco assay buffer. Activity measured with Caco-assay buffer alone is set to 100% and inhibitor concentration is calculated from the dilutions resulting in 20 to 80% inhibition according to the equation for competitive inhibition.
(§4) [formula] • I=inhibitor concentration • v0=velocity of the reaction without inhibitor (Caco assay buffer alone) • vi=velocity of the reaction with inhibitor sample • Ki=Ki-value of the compound • DF=dilution factor of the sample Transport Assay
(§5) The human colon adenocarcinome cell line Caco-2 are grown in 6- or 24-transwell microplates (Costar) for 21 days with MEM-alpha containing 10% FBS and 0.5% Gentamycin (Invitrogen). After 21 days of cultivation integrity of the cell layer are assessed by measurement of the transepitelial electrical resistance.
(§6) Transport measurements are carried out in triplicates at a pH of 7.5. For each compound and direction (apical to basal (a-b), basal to apical (b-a)) two separate experiments are done. Samples are collected from the donor and acceptor compartments at the beginning of the experiment and after 60 min (for 6-well plates, Donor at 0 and 120 min, Acceptor at 15, 30, 60 and 120 min).
(§7) Samples are analyzed in several dilutions for their ability to inhibit human recombinant DP IV and compound concentrations may be calculated using the prior determined Ki-value (see above).
(§8) The permeability coefficient Papp is calculated according to the following equation:
(§9) [formula] • VA=Volume of the acceptor compartment • A=Area of the transwell membrane • t=sampling time • cAt=concentration in the acceptor compartment at sampling time • CDO=concentration in the donor compartment at t=0
(§10) Papp-values>1e-5 cm/s are assessed as good permeable, value<1e-6 cm/s as not permeable. Papp-values in between as medium permeable. Compounds where no significant difference were found between a-b and b-a transport are assessed to be passive transported.

In data set [8] the test system is Caco-2 monolayer. Kind of data set: Caco-2 transport assay. Format: in vitro ADME, human. Conditions: assessment of permeability and transport type. The procedure:
as §2, §3, §4, §5, §6, §7, §8, §9, §10

For data set [9], the target named is T1, DP IV. Kind of data set: DP IV inhibition IC50, parallel-synthesis compounds tested directly following synthesis (without purification). Type of data set: biochemical. Also noted: IC50 DP4; other: tested directly following parallel synthesis, without purification; compounds of formula (Ib) from parallel synthesis, tested directly following synthesis. The note with it: DP IV inhibition; compounds of formula (Ib) from parallel synthesis, tested directly following synthesis (without purification); read-out: IC50. A digest of the protocol: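 IC50 came from a 4-parameter fit of residual activity (linear 405 nm slopes for pNA release over ~18 min, relative to solvent-only wells). Gly-Pro-pNA was the substrate, cleaved by porcine kidney or recombinant human DP IV at room temperature in HEPES with 5% DMSO; duplicate 1:2 series started at 100 μM final.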

T1 sequence (P27487 whole entry): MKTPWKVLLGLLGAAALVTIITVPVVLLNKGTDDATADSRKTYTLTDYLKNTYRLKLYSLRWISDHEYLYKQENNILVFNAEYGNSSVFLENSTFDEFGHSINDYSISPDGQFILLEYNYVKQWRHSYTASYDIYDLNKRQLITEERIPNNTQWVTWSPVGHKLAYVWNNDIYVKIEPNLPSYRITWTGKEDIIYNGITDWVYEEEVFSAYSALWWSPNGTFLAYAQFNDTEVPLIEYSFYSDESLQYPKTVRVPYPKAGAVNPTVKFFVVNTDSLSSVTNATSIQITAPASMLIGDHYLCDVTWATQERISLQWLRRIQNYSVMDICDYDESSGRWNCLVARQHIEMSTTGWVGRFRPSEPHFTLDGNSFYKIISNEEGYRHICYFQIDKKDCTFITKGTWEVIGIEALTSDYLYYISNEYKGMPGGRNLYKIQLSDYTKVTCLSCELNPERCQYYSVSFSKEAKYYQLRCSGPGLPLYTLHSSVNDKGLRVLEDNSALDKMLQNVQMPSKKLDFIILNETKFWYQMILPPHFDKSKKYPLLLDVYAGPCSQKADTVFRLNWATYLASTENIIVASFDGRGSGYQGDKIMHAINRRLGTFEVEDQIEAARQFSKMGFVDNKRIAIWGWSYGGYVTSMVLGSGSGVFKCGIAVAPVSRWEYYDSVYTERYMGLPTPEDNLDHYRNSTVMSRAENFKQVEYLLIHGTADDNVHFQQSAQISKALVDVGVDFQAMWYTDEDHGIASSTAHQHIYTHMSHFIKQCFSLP
DP9, sequence (Q86TI2 whole entry, species assumed): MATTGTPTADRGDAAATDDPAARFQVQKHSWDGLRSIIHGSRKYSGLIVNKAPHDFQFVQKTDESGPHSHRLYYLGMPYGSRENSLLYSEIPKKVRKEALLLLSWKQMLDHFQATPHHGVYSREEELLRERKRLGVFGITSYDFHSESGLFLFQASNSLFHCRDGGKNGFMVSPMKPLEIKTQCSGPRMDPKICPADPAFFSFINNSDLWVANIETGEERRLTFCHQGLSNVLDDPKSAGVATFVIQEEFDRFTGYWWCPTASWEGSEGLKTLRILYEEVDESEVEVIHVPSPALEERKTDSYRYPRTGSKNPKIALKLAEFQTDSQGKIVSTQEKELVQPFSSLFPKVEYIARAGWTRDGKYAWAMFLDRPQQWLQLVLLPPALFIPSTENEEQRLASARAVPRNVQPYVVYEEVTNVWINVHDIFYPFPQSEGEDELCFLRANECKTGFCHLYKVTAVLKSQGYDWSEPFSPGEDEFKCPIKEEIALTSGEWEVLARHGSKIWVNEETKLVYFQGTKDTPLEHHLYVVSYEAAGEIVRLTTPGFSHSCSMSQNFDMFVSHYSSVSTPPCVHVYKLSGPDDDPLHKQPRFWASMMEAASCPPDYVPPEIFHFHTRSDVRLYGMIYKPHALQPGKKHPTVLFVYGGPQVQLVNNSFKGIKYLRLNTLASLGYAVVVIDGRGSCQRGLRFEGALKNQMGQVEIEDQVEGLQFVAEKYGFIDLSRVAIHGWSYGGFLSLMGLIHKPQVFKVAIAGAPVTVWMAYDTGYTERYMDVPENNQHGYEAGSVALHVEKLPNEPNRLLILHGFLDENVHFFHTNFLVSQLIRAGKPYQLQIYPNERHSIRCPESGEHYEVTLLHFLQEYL

`COc1ccccc1Cn1cnc(-c2ccc(Cl)cc2Cl)c1CN` [Example 120b, C-[5-(2,4-dichloro-phenyl)-3-(2-methoxy-benzyl)-3H-imidazol-4-yl]-methylamine]: the half-maximal inhibitory concentration (IC50) in data set [1] came out at 0.261 µM. The Ki in [2] came to 0.0158 µM. Further, in data set [3], the “Selectivity DPII(IC50)/DPIV(Ki)” value is reported as 1,177 and the IC50 worked out at 18.6 µM. Moreover, in [4], half-maximal inhibition (IC50) was put at 59.7 µM and the “Selectivity DP9(IC50)/DPIV(Ki)” value is listed as 3,778. Moreover, in data set [5], the “Cytotox 100 μM (%) HEPG2” value amounted to 11.6%, the “Viability 100 μM (%) HEP-G2” value is 108.9%, the Observed cytotox turned out to be 50% spheric and the “LD50 Viability HEP-G2” value came to 0.21 mM. Moreover, in data set [5], the “LD50 cytotox HEP-G2” value was determined as 0.17 mM. For the same compound, in [6], the “LD50 Viability SY5Y” value was 0.10 mM and the “LD50 cytotox SY5Y” value is on record as 0.16 mM. Moreover, in data set [7], the apical-to-basolateral permeability (Papp A→B) came to 51.2 ×10⁻⁶ cm/s and the basolateral-to-apical permeability (Papp B→A) came out at 52.8 ×10⁻⁶ cm/s. In addition, in data set [8], the Transport entry was “good, passive”. Further, in data set [9], the IC50 is 1.9 µM.
With `NCc1c(-c2ccc(Cl)cc2Cl)ncn1Cc1ccccc1Cl` [Example 81b, C-[3-(2-chloro-benzyl)-5-(2,4-dichloro-phenyl)-3H-imidazol-4-yl]-methylamine], 0.139 µM corresponded to half-maximal inhibition in [1] (IC50). The compound also displayed a Ki in [2] of 0.0195 µM. In data set [3], the inhibition constant Ki was 2.18 µM, the “Selectivity DPII(IC50)/DPIV(Ki)” value was 383 and the half-maximal inhibitory concentration (IC50) worked out at 7.46 µM. In addition, in data set [4], the Ki was determined as 7.65 µM, the IC50 stood at 38.3 µM and the “Selectivity DP9(IC50)/DPIV(Ki)” value is recorded as 1,964. Besides, in data set [5], the “LD50 Viability HEP-G2” value turned out to be 0.14 mM and the “LD50 cytotox HEP-G2” value stood at 0.12 mM. Besides, in data set [6], the “LD50 Viability SY5Y” value turned out to be 0.07 mM and the “LD50 cytotox SY5Y” value worked out at 0.16 mM. In data set [7], this compound gave an apparent permeability from apical to basolateral (Papp A→B) of 41.9 ×10⁻⁶ cm/s and a Papp B→A of 16 ×10⁻⁶ cm/s. Also, in data set [8], the Transport entry is recorded as “good, active in”. Besides, the IC50 in data set [9] was found to be 1 µM.
As to `COc1cccc(Cn2cnc(-c3ccc(Cl)cc3Cl)c2CN)c1` [Example 59b, C-[5-(2,4-dichloro-phenyl)-3-(3-methoxy-benzyl)-3H-imidazol-4-yl]-methylamine], in [1], the half-maximal inhibitory concentration (IC50) is 0.221 µM. The compound further had a Ki in data set [2] of 0.0153 µM. Besides, in [3], the “Selectivity DPII(IC50)/DPIV(Ki)” value is 2,542 and it took 38.9 µM to reach half-maximal inhibition (IC50). Also, in data set [4], the “Selectivity DP9(IC50)/DPIV(Ki)” value is reported as 7,974. In data set [5], the “Cytotox 100 μM (%) HEPG2” value stood at 1.2%, the “Viability 100 μM (%) HEP-G2” value stood at 116.3% and the Observed cytotox is 10% spheric. Further, in data set [7], the Papp A→B was found to be 49.7 ×10⁻⁶ cm/s and the Papp B→A is 38.3 ×10⁻⁶ cm/s. Further, the Transport entry in data set [8] is “good, passive”. Also, the IC50 in data set [9] was 3.7 µM.
The compound `NCc1c(-c2ccc(Cl)cc2Cl)ncn1Cc1ccccc1F` [Example 112b, C-[5-(2,4-dichloro-phenyl)-3-(2-fluoro-benzyl)-3H-imidazol-4-yl]-methylamine] had an IC50 in data set [1] of 0.195 µM. The inhibition constant (Ki) in data set [2] was 0.0105 µM. For the same compound, in data set [3], the “Selectivity DPII(IC50)/DPIV(Ki)” value is listed as 3,514 and the half-inhibitory concentration (IC50) was 36.9 µM. Moreover, the “Selectivity DP9(IC50)/DPIV(Ki)” value in [4] is listed as 9,714. Further, in data set [5], the “Cytotox 100 μM (%) HEPG2” value was determined as 3.0% and the “Viability 100 μM (%) HEP-G2” value is given as 111.4%. In [7], this compound came in with a Papp A→B of 44.8 ×10⁻⁶ cm/s and a basolateral-to-apical permeability (Papp B→A) of 42.1 ×10⁻⁶ cm/s. The Transport result in [8] is recorded as “good, passive”. Moreover, the half-maximal inhibitory concentration (IC50) in data set [9] is 3.7 µM.
